Source: paper PMC4900804, “Allosteric modulation in monomers and oligomers of a G protein-coupled receptor” (eLife, 2016)
Positions count from the first letter of the chain named. Several values for one entry are separate records, joined by “and”; a condition that tells them apart may be missing. Equal values may be shown once. Read-outs that look alike come from different tables or passages of the source.

Assays:
[1] = molecular target: T1, FlAsH-reacted mCh-M2-FCM in CHO cells (Homo sapiens, UniProt P08172, INS166FLNCCPGCCMEP); assay: FRET between FlAsH and mCherry in the sensor, ligand-dependent change in Eapp; format: cell-based; settings: ligand 1 mM
T1 sequence (P08172 with tags, fused parts or gaps): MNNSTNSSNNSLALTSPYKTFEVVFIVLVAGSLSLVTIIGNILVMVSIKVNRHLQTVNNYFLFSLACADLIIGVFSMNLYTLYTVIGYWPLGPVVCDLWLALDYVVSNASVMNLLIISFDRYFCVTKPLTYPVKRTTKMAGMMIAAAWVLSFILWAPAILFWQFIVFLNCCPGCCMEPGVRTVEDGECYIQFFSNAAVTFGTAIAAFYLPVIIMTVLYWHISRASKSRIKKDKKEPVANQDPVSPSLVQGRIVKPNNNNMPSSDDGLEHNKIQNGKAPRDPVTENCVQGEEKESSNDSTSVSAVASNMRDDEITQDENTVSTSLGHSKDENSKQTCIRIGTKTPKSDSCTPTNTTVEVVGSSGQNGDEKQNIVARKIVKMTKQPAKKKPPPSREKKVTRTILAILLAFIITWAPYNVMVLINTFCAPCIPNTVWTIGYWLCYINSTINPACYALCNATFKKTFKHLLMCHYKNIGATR

[2] = molecular target: T2, eGFP-M2 solubilized in digitonin–cholate (Homo sapiens, UniProt P08172); assay: Time-resolved fluorescence and fluorescence anisotropy of eGFP-tagged M2 receptor; settings: eGFP-M2 + carbachol 1 mM
T2 sequence (P08172 1-466): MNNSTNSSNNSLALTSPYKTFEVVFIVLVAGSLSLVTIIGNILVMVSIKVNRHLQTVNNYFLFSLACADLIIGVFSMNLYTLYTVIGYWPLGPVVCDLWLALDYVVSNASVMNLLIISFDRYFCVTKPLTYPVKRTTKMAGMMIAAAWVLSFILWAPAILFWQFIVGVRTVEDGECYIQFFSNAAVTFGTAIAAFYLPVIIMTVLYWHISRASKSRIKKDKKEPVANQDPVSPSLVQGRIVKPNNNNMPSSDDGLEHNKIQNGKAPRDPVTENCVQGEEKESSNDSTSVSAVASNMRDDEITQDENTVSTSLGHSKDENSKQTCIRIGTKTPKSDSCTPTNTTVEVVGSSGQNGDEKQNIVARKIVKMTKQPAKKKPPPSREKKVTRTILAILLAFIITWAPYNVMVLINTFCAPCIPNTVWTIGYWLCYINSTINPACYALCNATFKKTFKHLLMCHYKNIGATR

[3] = molecular target: T3, copurified heteromer of M2-ECL2+ve and M2-D103A (Homo sapiens, UniProt P08172, D103A/D173R/E172K/E175K); assay: Effect of gallamine on the binding of [3H]NMS to purified hetero-oligomers; settings: [3H]NMS 10 nM; 21 hr at 30°C
T3 construct: hexahistidine (His6) (N); made in house; host or cells: co-transfected CHO cells; purified on Ni2+-NTA and anti-FLAG resins
T3 sequence (P08172 1-466 E172K/D173R/E175K): T2 sequence (P08172 1-466) with E172K, D173R, E175K
T3 sequence (P08172 1-466 D103A): T2 sequence (P08172 1-466) with D103A

[4] = molecular target: T4, M2 receptor monomers purified from Sf9 cells (Homo sapiens, UniProt P08172); assay: Effect of allosteric modulators on the binding of [3H]NMS to purified monomers
T4 sequence (P08172 1-466): T2 sequence (P08172 1-466)

[5] = tested on: M2 receptor in Sf9 membranes; settings: cited from earlier work
[6] = molecular target: T4, M2 receptor monomers purified from Sf9 cells; format: binding
[7] = molecular target: M2 receptor in membranes from CHO cells (Homo sapiens, UniProt P08172)
[8] = molecular target: M2 receptors extracted from porcine sarcolemmal membranes (Sus scrofa, UniProt P06199)
[9] = tested on: M2 receptors (alanine for aspartic acid at position 103) in HEK293 membranes; settings: cited from earlier work
[10] = molecular target: mCh-M2(D103A)-FCM (human) (UniProt P08172)
[11] = gallamine, [3H]NMS 10 nM, 21 h at 30 °C, n = 1

M2 receptors extracted from porcine sarcolemmal membranes, sequence (P06199 whole entry): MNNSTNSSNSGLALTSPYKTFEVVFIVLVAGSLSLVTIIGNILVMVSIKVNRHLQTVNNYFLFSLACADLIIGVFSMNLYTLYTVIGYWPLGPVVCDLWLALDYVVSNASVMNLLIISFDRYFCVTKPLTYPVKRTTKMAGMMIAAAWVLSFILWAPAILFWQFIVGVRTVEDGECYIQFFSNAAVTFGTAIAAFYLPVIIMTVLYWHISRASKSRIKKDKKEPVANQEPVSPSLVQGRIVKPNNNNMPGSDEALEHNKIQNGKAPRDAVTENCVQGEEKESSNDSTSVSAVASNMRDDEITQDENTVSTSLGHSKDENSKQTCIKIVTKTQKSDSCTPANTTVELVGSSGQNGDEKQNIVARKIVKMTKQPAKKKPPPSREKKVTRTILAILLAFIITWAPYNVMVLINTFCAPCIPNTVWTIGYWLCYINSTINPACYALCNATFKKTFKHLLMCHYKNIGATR

With `C[N+](C)(C)CCOC(N)=O` [carbachol] the “∆Eapp, mean change in FRET efficiency ± S.D.” value [1] was −21.6 ± 11.2%, the “Fluorescence lifetime (τ)” value [2] was 2.5 ± 0.1 ns and the “Rotational correlation time (φ)” value [2] was 43 ± 5 ns.

In the case of `CC[N+](CC)(CC)CCOc1cccc(OCC[N+](CC)(CC)CC)c1OCC[N+](CC)(CC)CC` [gallamine], the “log K2 (Equation 2, n = 3)” value [3] is reported as 4.29 ± 0.37, the F1 [4, 11] is reported as 1.00 and the “nH(1)” value [4, 11] is reported as 1.00 ± 0.06. For the same compound, the “log K1 (Equation 2), dose-dependence of kobsd/k0” value [5] was −5.99 ± 0.31, the “log K2 (Equation 2), dose-dependence of kobsd/k0” value [5] was −4.35 ± 0.03 and the F1 [6] was 1.00.

For `O=C1C[C@@H]2OCC=C3CN4CC[C@]56c7ccccc7N1[C@H]5[C@H]2[C@H]3C[C@H]46` [strychnine], the F2 [7] was 2.21 ± 0.16, the “nH(1)” value [7] was 0.72 ± 0.06 and 0.98 ± 0.14 and 1.20 ± 0.07 and the “nH(2)” value [7] was 1.44 ± 0.09 and 1.07 ± 0.08. The F2 [8] was 1.57 and 2, the F1 [4] was 1.00 and the “nH(1)” value [4] was 0.62 ± 0.07 and 1.23 ± 0.07.

For N-[^3H]methylscopolamine [[^3H]NMS], the “specific binding of radioligand” value [9] is given as “prevent the specific binding”.

“eGFP-M2 (from UniProt P08172 1-466) (receptor)” gave an NMS (1 μM)-dependent increase in the FRET efficiency between FlAsH and mCherry of the binding-deficient sensor in CHO cells that display eGFP, FlAsH and mCherry (percentage points) [10] of 5.3.
